This note sets out measurements from patent US9809521B2, “Cannabidinoid derivatives” (priority 2011, dated 2017).

Assay [1] relates to Id-2. Description: Western analysis of Id-2 expression in breast cancer cells. It is filed as cell-based, human. Particulars: 1.0 μM, three days.
Assay [2] has as its target CB1 receptors (Homo sapiens, UniProt P21554). Description: Affinity for CB1 receptors. The assay is classed as binding.
Assay [3] relates to Id-1. Description: Quantitative Western analysis of Id-1 expression in 4T1 cells. The assay is classed as cell-based, mouse. As to conditions: 1.0 μM, two days.
Experimental: To examine whether CBD or O-1663 CBD analog would inhibit Id-1 protein expression in cells proposed for the in-vivo metastic cancer model, quantitative Western analysis was performed with 4T1 cells. 4T1 cells were treated with 1.0 μM of cannabinoid for two days and then analyzed for Id-1 protein expression.
A short description of assay [4]: Tetrad assay (psychoactive properties of cannabinoids). As to conditions: in vivo.
Assay [5] deals with caspase 3, 7, 9 and PARP. Description: Western analysis of caspases and PARP in U251 cells. It is filed as cell-based, human. Particulars: THC 1.7 μM, CBD 0.4 μM, three days. The source says: Caspases play a primary role in the regulation of programmed cell death.
Assay [6] deals with Id-1. Description: Quantitative Western analysis of Id-1 expression in different types of cancer cells. The assay is classed as cell-based. On the procedure:
Quantitative Western analysis of Id-1 expression in different types of cancer cells with or without CBD treatment. Quantitative Western analysis was performed to examine whether CBD would downregulate Id-1 protein expression in cell lines for breast, prostate, salivary gland, head and neck, and glioblastoma cell lines. […] For the salivary gland cancer cell line, ACCM, a higher concentration of CBD (2.5 μM) was required to see a significant downregulation in Id-1 expression (FIG. 13, panel C (left)).

Assay [7] deals with 4T1 breast cancer cells. Description: Viability assay, combination with Paclitaxel. The assay is classed as cell-based, mouse. On the procedure:
Viability Assays using drug combinations and statistical analysis: Multiple viability assays in a 96 well format were run for each compound and the average percent inhibition of cell viability was calculated and transformed to fraction affected (Fa) i.e., percent inhibitory effect. Additional CI values and a dose reduction index (DRI) were also calculated using Compusyn software. After determining the (IC50/Fa0.5) values of the drugs individually, components were then combined at the following concentration ranges: controls, 0.125×IC50, 0.25×IC50, 0.5×IC50 and a combination index was calculated where CI<1, =1, and >1 indicate synergism, additive effect, and antagonism, respectively.
Cell viability studies with 4T1 breast cancer cells using CBD in combination with Paclitaxel. […] The concentration response curves were first generated for Paclitaxel (PAC), CBD alone, and a combination of CBD and Paclitaxel (FIG. 11, panel A). The inhibitory values from the concentration response curves were then used to calculate combination index (CI) values at multiple combination ratios (FIG. 11, panel B). From which, the data was also used to calculate i) IC50 values, the slope of the curve (m) and a goodness of fit value (r).

Assay [8] has as its system Id-1. Description: Quantitative Western analysis of Id-1 expression in U251 cells. The assay is classed as cell-based, human. The protocol:
Quantitative Western analysis of Id-1 expression in U251 cells with or without CBD treatment. To examine whether CBD would downregulate Id-1 protein expression in a GBM based cell line, quantitative Western analysis was performed with U251 cells.

Sequence of CB1 receptors (P21554 whole entry): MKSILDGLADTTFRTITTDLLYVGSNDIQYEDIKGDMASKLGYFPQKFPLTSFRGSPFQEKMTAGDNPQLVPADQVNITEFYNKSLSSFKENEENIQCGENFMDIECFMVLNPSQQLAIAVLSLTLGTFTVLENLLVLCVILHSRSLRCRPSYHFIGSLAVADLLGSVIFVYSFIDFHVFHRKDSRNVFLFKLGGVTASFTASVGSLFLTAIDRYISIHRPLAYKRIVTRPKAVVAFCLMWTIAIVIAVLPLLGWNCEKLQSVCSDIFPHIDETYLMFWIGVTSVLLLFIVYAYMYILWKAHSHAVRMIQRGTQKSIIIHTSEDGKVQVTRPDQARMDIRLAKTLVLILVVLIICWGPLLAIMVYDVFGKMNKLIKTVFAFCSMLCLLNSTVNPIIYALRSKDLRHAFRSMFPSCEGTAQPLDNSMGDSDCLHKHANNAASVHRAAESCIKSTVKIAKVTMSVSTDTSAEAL

As to `CCCCC(C)(C)c1cc(O)c(C2CCC(C3CCCCC3)CC2)c(O)c1` (stereo not drawn) [Compound O-1663], the “up-regulation of Id-2 expression” value in assay [1] is given as “more potent than CBD at up-regulating Id-2 expression”. Further, the “affinity for CB1 receptors” value in assay [2] is listed as “lower affinity for CB1 receptors in comparison to THC”. Besides, the “Id-1 protein expression compared with CBD” value in assay [3] is on record as “downregulated Id-1 protein expression to a far greater extent than CBD”. The “activity in the tetrad assay” value in assay [4] was “little activity in the tetrad assay”.

Consider `C=C(C)[C@@H]1CCC(C)=C[C@H]1c1c(O)cc(CCCCC)cc1O` [CBD, cannabidiol], for which the “caspase 3, 7, 9 and PARP” value in assay [5] is recorded as “no changes in caspase activity were observed”. Besides, the “Id-1 protein expression in MDA-MB231, MDA-MB436, PC3, DU145, SAS, U251 and SF126” value in assay [6] (1.5 μM) is recorded as “significant inhibition of Id-1 protein expression”. The “concentration required for significant downregulation in Id-1 expression, ACCM” value in assay [6] (salivary gland cancer cell line ACCM) is 2.5 µM. Besides, the “interaction with Paclitaxel (combination index)” value in assay [7] is listed as “acts synergistically with Paclitaxel”. Further, the Id-1 protein expression entry in assay [8] was “concentration-dependent inhibition of Id-1 protein expression”.
